We go through three compounds from patent US20230220065A1, “ANTIBODIES TO INTERLEUKIN-1BETA AND USES THEREOF” (ACADEMIA SINICA, priority 2020, published 2023).

In assay [1] the test system is IL-1β-induced NF-κB signaling in HEK-blue IL-1β cells. The assay can be described thus: In vitro IL-1β neutralization assay in HEK-blue IL-1β reporter cells (SEAP). In kind it is cell-based, human. An excerpt:
FIG. 1 illustrates inhibitory effect on IL-1β-induced NF-κB signaling of different selected IgGs from generic human phage-display libraries in HEK-blue IL-1β cells. (A) IL-1β bound to its receptor IL-1RI and its receptor accessory protein IL-1RAcP to form the IL-1β/IL-1RI/IL-1RAcP ternary complex. IL-1β induces downstream signaling pathways, including NF-κB activation (IκB degradation) and AP-1 activation (phosphorylation of JNK, p38 and ERK). (B) Ten IgGs bound to human IL-1β were selected from the generic human phage-display library.
FIG. 4 illustrates the comparison of IL-1β neutralizing abilities in different IL-1β-neutralizing antibodies. IL-1β was diluted from 1500 to 0 pM. Each antibody was added at a 5 nM concentration with different concentrations of IL-1β. HEK-blue-IL-1β cells were used to detect the IgG inhibitory effects of IL-1β signaling. The binding curve was fitted by a nonlinear regression curve to obtain the IC50.
FIG. 8 illustrates binding affinities and inhibitory effects of IgG variants selected from optimized IgG26 phage-display libraries. […] (B) Inhibitory effects on IL-1β-mediated downstream signaling were examined in 30 pM IL-1β-stimulated HEK-blue reporter cells. […]
After 16 hours, the inhibitory effect of IL-1β-induced signaling was monitored by SEAP assay. […]

Assay [2] addresses recombinant human IL-1β (R&D systems) (human) (UniProt P01584).
For assay [3], the target named is recombinant human IL-1β (117-269 amino acids, without the pro-peptide region) (human) (UniProt P01584).
Another assay relates to human IL-1β-induced IL-6. The assay can be described thus: Cytokine biomarker assay: human IL-1β-induced serum IL-6 in mice. The class given is in vivo. Particulars: 0.2 mg/kg antibody intravenously, human IL-1β 240 ng/mouse intraperitoneally, male C57BL/6 mice. As for the experimental part: FIG. 5 illustrates cytokine biomarker assay. (A) The concentration of injected IgG1 at different time courses to compare the stability of IgG in male C57BL/6 mouse serum. […] Then, the mice were injected intraperitoneally with human IL-1β (240 ng/200 μL/mouse). Two hours after the injection, the mice were restrained, and blood was collected to detect the serum IL-6 level in the mice. IgG26AW treatment can inhibit the 40% induction of IL-6, which responds to human IL-1β boosting.
Then, the mice were injected intraperitoneally with recombinant human IL-1β (R&D systems) 240 ng/200 μL/mouse; then, 2.5 hours after the injection (peak IL-6 response time), the mice were restrained, and blood was collected via a facial vein with a lancet. Serum mouse IL-6 levels were measured using a Quantikine ELISA Kit (R&D System) according to the manufacturer's protocol.
To determine whether various rodent and primate disease models could be used to test the in vivo efficacy of IgG26AW, the ability of IgG26AW to bind a number of species orthologs of IL-1β was measured by SPR. […] This affinity is not sufficient to test IgG26AW efficacy in mouse disease models. […] Moreover, concentrations of IgGs after the injection in the serum were evaluated in different time courses.

Entries after “also recorded” stand apart in the source; their conditions may differ.

With `O=C(OC[C@H]1O[C@@H](OC(=O)c2cc(O)c(O)c(O)c2)[C@H](OC(=O)c2cc(O)c(O)c(O)c2)[C@@H](OC(=O)c2cc(O)c(O)c(O)c2)[C@@H]1OC(=O)c1cc(O)c(O)c(O)c1)c1cc(O)c(O)c(O)c1` [PGG, 1,2,3,4,6-Penta-O-Galloyl-β-D-Glucose], the “NF-κB signaling inhibition of low dose IgG26AW combined with PGG” value in assay [1] (69 pM IgG26AW combined with 50 μM PGG, IL-1β 588 to 0 pM (FIG. 14)) is “efficiently inhibits the NF-κB signaling as similar as 690 pM IgG26AW can do”. Besides, in assay [1] (75 pM IL-1β, IgG26AW 69 nM to 0 nM, PGG 30 μM or 50 μM (FIG. 13)), the “effect of PGG cotreatment with IgG26AW on IL-1β induced NF-κB signaling” value is “synergistically reduce NF-kB signaling; also recorded: dose-dependent inhibitory effect on NF-κB signaling”.
For canakinumab (antibody), the human IL-1β-induced systemic IL-6 expression in C57BL/6 mice (serum mouse IL-6, ELISA) in assay [2] stood at 47%. The IL-1β concentration whose NF-κB signal is half inhibited by 5 nM antibody (HEK-blue IL-1β cells, SEAP assay; called IC50 in the legend) in assay [3] worked out at 925 pM.
In the case of “canakinumab: marketed anti-IL-1β antibody (Novartis), synthesized from patent US20090232803”, the “inhibition of human IL-1β-induced systemic (serum) IL-6” value in the assay with human IL-1β-induced IL-6 is on record as 47%.
